This is an account of results in US20260285866A1, “MODULATORS OF TRPML, THEIR COMPOSITIONS AND METHODS OF USE” (Caraway Therapeutics, Inc., priority 2024, published 2026).

One experiment addresses Human TRPML1 (Homo sapiens, UniProt Q9GZU1, L15A/L16A/L577A/L578A). As to the kind of experiment: Fluorescent TRPML1 assay (Fluo4-AM, HEK-293 Trex cells expressing hTRPML1). The format is cell-based. The settings on record: fluorescent calcium assay, doxycycline-induced hTRPML1. Summed up:
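Doxycycline-induced (0.5 μg/mL) HEK-293 Trex cells stably expressing surface-targeted mutant hTRPML1, loaded with 1 μM Fluo4-AM, then suspended in modified Ringer's with 10 mM calcium and added to compounds (20 μM to 6 nM final, half-log steps, triplicate). Fluorescence read at ex 480/em 540; percent activity versus plate controls, EC50 by non-linear regression.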

The next experiment addresses T1, Human TRPML3 (Homo sapiens, UniProt Q8TDD5).
T1 construct: expressed in transfected cells
T1 sequence (Q8TDD5 1-553): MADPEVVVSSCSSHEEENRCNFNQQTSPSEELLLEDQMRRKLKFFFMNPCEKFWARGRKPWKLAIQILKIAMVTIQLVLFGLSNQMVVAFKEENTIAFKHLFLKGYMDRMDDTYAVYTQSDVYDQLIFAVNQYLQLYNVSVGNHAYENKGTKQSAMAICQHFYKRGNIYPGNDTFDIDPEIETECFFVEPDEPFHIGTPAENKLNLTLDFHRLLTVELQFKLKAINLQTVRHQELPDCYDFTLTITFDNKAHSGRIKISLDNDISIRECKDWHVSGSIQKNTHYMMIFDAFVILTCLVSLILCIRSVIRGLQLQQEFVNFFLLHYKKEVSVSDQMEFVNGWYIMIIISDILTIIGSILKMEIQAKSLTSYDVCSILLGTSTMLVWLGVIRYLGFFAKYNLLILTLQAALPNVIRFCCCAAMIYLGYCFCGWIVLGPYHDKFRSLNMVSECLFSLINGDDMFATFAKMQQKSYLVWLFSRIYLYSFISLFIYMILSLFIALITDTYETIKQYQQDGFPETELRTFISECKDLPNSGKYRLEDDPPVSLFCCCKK
As to the kind of experiment: Fluorescent TRPML3 assay (as for TRPML1). The format is cell-based. The settings on record: fluorescent calcium assay as for TRPML1, TRPML3 subtype. Summed up: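 Tet-inducible HEK-293 Trex cells expressing human TRPML2 or TRPML3, induced overnight with 0.5 μg/mL doxycycline, loaded with 1 μM Fluo4-AM and suspended in Ringer's solution with 10 mM calcium. Compounds tested in triplicate from 20 μM to 6 nM final in half-log steps; fluorescence at 480/540 nm. EC50 by non-linear regression, binned A–D.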

The target of the next experiment is T2, Human TRPML2 (Homo sapiens, UniProt Q8IZK6).
T2 construct: expressed in transfected cells
T2 sequence (Q8IZK6 1-566): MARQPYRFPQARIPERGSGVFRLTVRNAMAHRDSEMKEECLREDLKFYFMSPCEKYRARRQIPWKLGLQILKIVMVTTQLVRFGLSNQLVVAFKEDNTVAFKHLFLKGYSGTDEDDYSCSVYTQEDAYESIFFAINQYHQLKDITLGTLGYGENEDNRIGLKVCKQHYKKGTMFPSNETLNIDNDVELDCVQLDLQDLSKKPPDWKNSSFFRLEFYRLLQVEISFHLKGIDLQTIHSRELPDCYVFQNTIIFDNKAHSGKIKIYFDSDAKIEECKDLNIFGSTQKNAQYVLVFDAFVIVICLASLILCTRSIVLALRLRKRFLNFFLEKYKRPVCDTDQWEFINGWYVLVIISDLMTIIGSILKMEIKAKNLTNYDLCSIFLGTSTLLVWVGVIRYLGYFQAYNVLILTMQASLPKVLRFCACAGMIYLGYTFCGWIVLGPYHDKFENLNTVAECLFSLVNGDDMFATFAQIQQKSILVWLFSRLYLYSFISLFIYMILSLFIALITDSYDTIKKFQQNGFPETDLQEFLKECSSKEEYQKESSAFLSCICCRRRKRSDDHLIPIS
As to the kind of experiment: Fluorescent TRPML2 assay (as for TRPML1). To be noted: fluorescent calcium assay as for TRPML1, TRPML2 subtype. Format: cell-based. Here is the method: HEK-293 Trex cells were stably transfected with a construct consisting of the human coding sequence for TRPML1 cloned into the tet-inducible plasmid pCDNA5 T/O. Mutations were introduced into the TRPML1 sequence to facilitate expression on the cell surface (Silvia Vergarajauregui, Rosa Puertollano Traffic. 2006 March; 7(3): 337-353). Briefly, the cells are cultured in 150 mm round tissue culture dishes containing 20 mL of media. The day before the assay the cells are rinsed with DPBS-Ca-Mg and then treated briefly with Trypsin-EDTA. The Trypsin-EDTA is diluted with growth media, and cells are counted. 38×10^6 cells are re-plated into 150 mm round tissue culture dishes in media containing 0.5 μg/mL doxycycline to induce expression of hTRPML1.
The day of the experiment cells are lifted from the plates as above and collected by centrifugation. The cells are then suspended in dye loading buffer consisting of Ringer's solution supplemented with 0.1% Pluronic Acid and 1 micromolar Fluo4-AM dye. Cells are loaded for ~60 minutes in the dark with occasional mixing. The cells are collected by centrifugation, the loading media aspirated, and the cells resuspended in 25 mL Ringer's solution and incubated ~60 minutes in the dark. The cells are again collected by centrifugation, rinsed in Ringer's Solution and resuspended to 0.2×10^6 cells/mL in modified Ringer's solution containing 10 mM calcium.
Compounds are dissolved to a concentration of 10 millimolar with DMSO. Compound plates are created by dispensing compounds into 384 well black wall clear bottom plates (Greiner 781091). Positive and negative controls are included on each plate. Typically, different amounts of each compound are tested ranging from 100 nanoMoles (20 micromolar final concentration) decreasing in half-log steps to 31 picoMoles (6 nanomolar final concentration). Each concentration is typically tested in triplicate.
50 microliters of dye-loaded cells are dispensed into each well of the compound assay plate created above. The fluorescence in each well is then determined with an excitation wavelength of 480 nm and an emission wavelength of 540 nm using either a Molecular Devices SpectraMax multimode plate reader or a Hamamatsu FDSS/uCell plate imager.
The resulting fluorescence for each well is exported as an ascii file and loaded into our LIMS for analysis. The percent activity of each compound at each concentration is determined by comparison to the positive and negative control wells included in each plate.
Assays for TRPML2 and TRPML3 were performed as above for TRPML1, by substituting the appropriate TRPML2 or TRPML3 subtype for the TRPML1.
EC50 values were calculated using a non-linear regression of Prism. In the table, “A” indicates an EC50 of less than 100 nM, “B” indicates an EC50 range from 100 nM to 500 nM: “C” indicates an EC50 range from 500 nM to 2 μM; and “D” indicates an EC50 greater than 2 μM.

In the next experiment the test system is TRPMLs. The settings on record: high concentrations needed; background statement; cited from earlier work.

Each structure is given as a SMILES string.

Chain of Human TRPML1 (Q9GZU1 whole entry L15A/L16A/L577A/L578A): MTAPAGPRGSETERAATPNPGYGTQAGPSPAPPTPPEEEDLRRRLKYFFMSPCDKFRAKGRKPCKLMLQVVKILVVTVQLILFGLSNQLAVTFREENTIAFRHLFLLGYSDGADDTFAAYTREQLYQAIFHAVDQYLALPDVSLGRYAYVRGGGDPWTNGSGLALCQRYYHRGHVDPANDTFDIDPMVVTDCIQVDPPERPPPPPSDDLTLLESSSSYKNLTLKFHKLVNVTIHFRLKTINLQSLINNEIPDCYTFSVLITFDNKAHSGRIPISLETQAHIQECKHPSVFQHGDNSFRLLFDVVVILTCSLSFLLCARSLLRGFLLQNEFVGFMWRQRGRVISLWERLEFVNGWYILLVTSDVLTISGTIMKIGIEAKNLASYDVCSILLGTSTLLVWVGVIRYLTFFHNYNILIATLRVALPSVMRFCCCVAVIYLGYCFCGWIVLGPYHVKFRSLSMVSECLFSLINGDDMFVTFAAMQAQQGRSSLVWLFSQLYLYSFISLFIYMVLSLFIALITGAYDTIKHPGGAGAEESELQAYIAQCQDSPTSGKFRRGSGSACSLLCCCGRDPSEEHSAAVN

As a reminder, the EC50 is the concentration needed to bring the measured effect to its halfway point. As to `C[C@@H]1CN(c2ncnc3c2c(-c2ccccc2F)cn3-c2cc(C#N)ccn2)[C@@H](C)CN1C(=O)C1(O)CCCCC1` [Compound 122, 2-(5-(2-fluorophenyl)-4-((2S,5R)-4-(1-hydroxycyclohexane-1-carbonyl)-2,5-dimethylpiperazin-1-yl)-7H-pyrrolo[2,3-d]pyrimidin-7-yl)isonicotinonitrile], the concentration giving a half-maximal response (EC50) at Human TRPML1 was less than 100 nM; on Human TRPML3 it was less than 100 nM; on Human TRPML2, 500 to 2000 nM.

Consider `C[C@@H]1CN(c2ncnc3c2c(-c2ccccc2F)cn3-c2cc(C#N)ccn2)[C@@H](C)CN1C(=O)C1(O)CCCC1` [Compound 121, 2-(5-(2-fluorophenyl)-4-((2S,5R)-4-(1-hydroxycyclopentane-1-carbonyl)-2,5-dimethylpiperazin-1-yl)-7H-pyrrolo[2,3-d]pyrimidin-7-yl)isonicotinonitrile], for which the EC50 on Human TRPML1 was less than 100 nM; on Human TRPML3, less than 100 nM; on Human TRPML2, 500 to 2000 nM.

With `C[C@@H]1CN(c2ncnc3c2c(-c2ccccc2)cn3-c2cc(C#N)ccn2)[C@@H](C)CN1C(=O)CC(O)(C(F)(F)F)C(F)(F)F` [Compound 161, 2-(4-((2S,5R)-2,5-dimethyl-4-(4,4,4-trifluoro-3-hydroxy-3-(trifluoromethyl)butanoyl)piperazin-1-yl)-5-phenyl-7H-pyrrolo[2,3-d]pyrimidin-7-yl)isonicotinonitrile], the concentration giving a half-maximal response (EC50) on Human TRPML1 was 100 to 500 nM; on Human TRPML3, less than 100 nM; at Human TRPML2, 500 to 2000 nM.

With `C[C@@H]1CN(c2ncnc3c2c(-c2ccncc2)cn3-c2cccc(C#N)c2)[C@@H](C)CN1C(=O)C(C)(C)O` [Compound 135, 3-(4-((2S,5R)-4-(2-hydroxy-2-methylpropanoyl)-2,5-dimethylpiperazin-1-yl)-5-(pyridin-4-yl)-7H-pyrrolo[2,3-d]pyrimidin-7-yl)benzonitrile], the EC50 on Human TRPML1 is 500 to 2000 nM; at Human TRPML3, greater than 2000 nM; on Human TRPML2 it was greater than 2000 nM.

As to `Cc1cnccc1-c1cn(-c2cc(C#N)ccn2)c2ncnc(N3C[C@@H](C)N(C(=O)C(C)(C)O)C[C@@H]3C)c12` [Compound 147, 2-(4-((2S,5R)-4-(2-hydroxy-2-methylpropanoyl)-2,5-dimethylpiperazin-1-yl)-5-(3-methylpyridin-4-yl)-7H-pyrrolo[2,3-d]pyrimidin-7-yl)isonicotinonitrile], the EC50 at Human TRPML1 is 500 to 2000 nM; at Human TRPML3, 500 to 2000 nM; at Human TRPML2 it was greater than 2000 nM.

Take `C[C@@H]1CN(c2ncnc3c2c(-c2ccncc2)cn3-c2cc(C#N)ccn2)[C@@H](C)CN1C(=O)C1(O)CCCC1` [Compound 150, 2-(4-((2S,5R)-4-(1-hydroxycyclopentane-1-carbonyl)-2,5-dimethylpiperazin-1-yl)-5-(pyridin-4-yl)-7H-pyrrolo[2,3-d]pyrimidin-7-yl)isonicotinonitrile]: the EC50 on Human TRPML1 is less than 100 nM; on Human TRPML3, 100 to 500 nM; on Human TRPML2, 500 to 2000 nM.

For the compound `C[C@@H]1CN(c2ncnc3c2c(-c2ccncc2F)cn3-c2cc(C#N)ccn2)[C@@H](C)CN1C(=O)C(C)(C)O` [Compound 146, 2-(5-(3-fluoropyridin-4-yl)-4-((2S,5R)-4-(2-hydroxy-2-methylpropanoyl)-2,5-dimethylpiperazin-1-yl)-7H-pyrrolo[2,3-d]pyrimidin-7-yl)isonicotinonitrile], the values for the EC50 on Human TRPML1, at Human TRPML3 and on Human TRPML2 were 100 to 500 nM, 500 to 2000 nM and greater than 2000 nM, respectively.

Turning to `CCOC(C)(C)C(=O)N1C[C@H](C)N(c2ncnc3c2c(-c2ccccc2)cn3-c2cc(C#N)ccn2)C[C@H]1C` [Compound 170, 2-(4-((2S,5R)-4-(2-ethoxy-2-methylpropanoyl)-2,5-dimethylpiperazin-1-yl)-5-phenyl-7H-pyrrolo[2,3-d]pyrimidin-7-yl)isonicotinonitrile], the EC50 is less than 100 nM at Human TRPML1, less than 100 nM on Human TRPML3 and 100 to 500 nM at Human TRPML2.

For `C[C@@H]1CN(c2ncnc3c2c(-c2ccccc2)cn3-c2cc(C#N)ccn2)[C@@H](C)CN1C(=O)CC(C)(C)O` [Compound 159, 2-(4-((2S,5R)-4-(3-hydroxy-3-methylbutanoyl)-2,5-dimethylpiperazin-1-yl)-5-phenyl-7H-pyrrolo[2,3-d]pyrimidin-7-yl)isonicotinonitrile], the EC50 on Human TRPML1 was less than 100 nM; at Human TRPML3, 100 to 500 nM; at Human TRPML2, 500 to 2000 nM.

Regarding `C[C@@H]1CN(c2ncnc3c2c(-c2ccccc2F)cn3-c2cc(C#N)ccn2)[C@@H](C)CN1C(=O)C(C)(C)OCC(F)(F)F` [Compound 165, 2-(4-((2S,5R)-2,5-dimethyl-4-(2-methyl-2-(2,2,2-trifluoroethoxy)propanoyl)piperazin-1-yl)-5-(2-fluorophenyl)-7H-pyrrolo[2,3-d]pyrimidin-7-yl)isonicotinonitrile], the EC50 on Human TRPML1, on Human TRPML3 and at Human TRPML2 was less than 100 nM throughout.

Regarding `COC1(C(=O)N2C[C@H](C)N(c3ncnc4c3c(-c3ccccc3F)cn4-c3cc(C#N)ccn3)C[C@H]2C)CN(C)C1` [Compound 163, 2-(5-(2-fluorophenyl)-4-((2S,5R)-4-(3-methoxy-1-methylazetidine-3-carbonyl)-2,5-dimethylpiperazin-1-yl)-7H-pyrrolo[2,3-d]pyrimidin-7-yl)isonicotinonitrile], the EC50 is less than 100 nM at Human TRPML1, less than 100 nM on Human TRPML3 and greater than 2000 nM on Human TRPML2.

On to `CC1CC(C)(C)N(C(=O)CN2C(=O)c3ccccc3C2=O)c2ccccc21` (stereo not shown) [ML-SA1, Mucolipin Synthetic Agonist I], for which the “concentration needed to effectively activate TRPMLs” value in the experiment on TRPMLs is recorded as ~ 10 μM.
